PubChem BioAssay AID1963832 (Molecular Pharmacology Branch, DTP, NCI, 2024)

Tested on: 885724-159-R-J1-PDC complex spheroid viability
Test: Anticancer human tumor 885724-159-R-J1-PDC patient-derived pancreatic adenocarcinoma cell line growth inhibition [POLQ]
Conditions: for IC50: curve of first compound; for viability, T/C: stronger effect = lower value
Summary of the method: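 PDC + HUVEC + MSC complex spheroids; POLQ inhibitors ± partner drugs; top conc. at/near clinical Cmax, else 10 microM (SN-38 1 microM), half-log dilutions; 37 degrees C, 5% CO2.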

[1] = second compound 0.0316 µM, first compound 0.0316 µM
[2] = second compound 0.0316 µM, first compound 0.1 µM
[3] = second compound 0.0316 µM, first compound 0.316 µM
[4] = second compound 0.0316 µM, first compound 1 µM
[5] = second compound 0.0316 µM, first compound 3.16 µM
[6] = second compound 0.0316 µM, first compound 10 µM
[7] = second compound 0.1 µM, first compound 0.0316 µM
[8] = second compound 0.1 µM, first compound 0.1 µM
[9] = second compound 0.1 µM, first compound 0.316 µM
[10] = second compound 0.1 µM, first compound 1 µM
[11] = second compound 0.1 µM, first compound 3.16 µM
[12] = second compound 0.1 µM, first compound 10 µM
[13] = second compound 0.316 µM, first compound 0.0316 µM
[14] = second compound 0.316 µM, first compound 0.1 µM
[15] = second compound 0.316 µM, first compound 0.316 µM
[16] = second compound 0.316 µM, first compound 1 µM
[17] = second compound 0.316 µM, first compound 3.16 µM
[18] = second compound 0.316 µM, first compound 10 µM
[19] = second compound 1 µM, first compound 0.0316 µM
[20] = second compound 1 µM, first compound 0.1 µM
[21] = second compound 1 µM, first compound 0.316 µM
[22] = second compound 1 µM, first compound 1 µM
[23] = second compound 1 µM, first compound 3.16 µM
[24] = second compound 1 µM, first compound 10 µM
[25] = second compound 3.16 µM, first compound 0.0316 µM
[26] = second compound 3.16 µM, first compound 0.1 µM
[27] = second compound 3.16 µM, first compound 0.316 µM
[28] = second compound 3.16 µM, first compound 1 µM
[29] = second compound 3.16 µM, first compound 3.16 µM
[30] = second compound 3.16 µM, first compound 10 µM
[31] = second compound 10 µM, first compound 0.0316 µM
[32] = second compound 10 µM, first compound 0.1 µM
[33] = second compound 10 µM, first compound 0.316 µM
[34] = second compound 10 µM, first compound 1 µM
[35] = second compound 10 µM, first compound 3.16 µM
[36] = second compound 10 µM, first compound 10 µM
[37] = second compound 0.0316 µM, first compound 0.00316 µM
[38] = second compound 0.0316 µM, first compound 0.01 µM
[39] = second compound 0.1 µM, first compound 0.00316 µM
[40] = second compound 0.1 µM, first compound 0.01 µM
[41] = second compound 0.316 µM, first compound 0.00316 µM
[42] = second compound 0.316 µM, first compound 0.01 µM
[43] = second compound 1 µM, first compound 0.00316 µM
[44] = second compound 1 µM, first compound 0.01 µM
[45] = second compound 3.16 µM, first compound 0.00316 µM
[46] = second compound 3.16 µM, first compound 0.01 µM
[47] = second compound 10 µM, first compound 0.00316 µM
[48] = second compound 10 µM, first compound 0.01 µM
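Further: spheroids exposed to compounds for 7 days.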

Work on `CCCS(=O)(=O)Nc1ccc(F)c(C(=O)c2c[nH]c3ncc(-c4ccc(Cl)cc4)cc23)c1F` + Nc1ccc(C#CCN(C(=O)Cc2ncc(C(F)(F)F)cc2C(F)(F)F)c2ccc(F)cc2)nn1 yielded an IC50 (second compound 0.0316 µM) greater than 10000 nM, an IC50 (second compound 0.1 µM) greater than 10000 nM and an IC50 (second compound 0.316 µM) greater than 10000 nM. It also gave an IC50 (second compound 1 µM) greater than 10000 nM, an IC50 (second compound 3.16 µM) greater than 10000 nM and an IC50 (second compound 10 µM) greater than 10000 nM. It also gave a viability, T/C [1] of 93.2%, a viability, T/C [2] of 95.2% and a viability, T/C [3] of 115%. For the same compound, the viability, T/C [4] was 128%, the viability, T/C [5] was 147% and the viability, T/C [6] was 97.6%. The viability, T/C [7] was 105%, the viability, T/C [8] was 107% and the viability, T/C [9] was 109%. For the same compound, the viability, T/C [10] was 137%, the viability, T/C [11] was 153% and the viability, T/C [12] was 97.5%. For the same compound, the viability, T/C [13] was 99.4%, the viability, T/C [14] was 110% and the viability, T/C [15] was 118%. It also gave a viability, T/C [16] of 134%, a viability, T/C [17] of 147% and a viability, T/C [18] of 94.1%. For the same compound, the viability, T/C [19] was 95.6%, the viability, T/C [20] was 101% and the viability, T/C [21] was 116%. The viability, T/C [22] was 132%, the viability, T/C [23] was 148% and the viability, T/C [24] was 95%. It also gave a viability, T/C [25] of 90.8%, a viability, T/C [26] of 103% and a viability, T/C [27] of 109%. It also gave a viability, T/C [28] of 144%, a viability, T/C [29] of 146% and a viability, T/C [30] of 85%. For the same compound, the viability, T/C [31] was 96.8%, the viability, T/C [32] was 109% and the viability, T/C [33] was 133%. The viability, T/C [34] was 137%, the viability, T/C [35] was 135% and the viability, T/C [36] was 94.5%.
With `CNCc1ccc(-c2[nH]c3cc(F)cc4c3c2CCNC4=O)cc1` + Nc1ccc(C#CCN(C(=O)Cc2ncc(C(F)(F)F)cc2C(F)(F)F)c2ccc(F)cc2)nn1 the IC50 (second compound 0.0316 µM) was greater than 10000 nM, the IC50 (second compound 0.1 µM) was greater than 10000 nM and the IC50 (second compound 0.316 µM) was greater than 10000 nM. For the same compound, the IC50 (second compound 1 µM) was greater than 10000 nM, the IC50 (second compound 3.16 µM) was greater than 10000 nM and the IC50 (second compound 10 µM) was greater than 10000 nM. The viability, T/C [1] was 89%, the viability, T/C [2] was 93% and the viability, T/C [3] was 87.5%. For the same compound, the viability, T/C [4] was 91%, the viability, T/C [5] was 92.3% and the viability, T/C [6] was 91.1%. For the same compound, the viability, T/C [7] was 101%, the viability, T/C [8] was 88.3% and the viability, T/C [9] was 92.5%. For the same compound, the viability, T/C [10] was 94.2%, the viability, T/C [11] was 89.9% and the viability, T/C [12] was 85.6%. It also gave a viability, T/C [13] of 95.5%, a viability, T/C [14] of 81.1% and a viability, T/C [15] of 85.9%. It also gave a viability, T/C [16] of 89.8%, a viability, T/C [17] of 96.5% and a viability, T/C [18] of 92.7%. The viability, T/C [19] was 88.7%, the viability, T/C [20] was 101% and the viability, T/C [21] was 89.7%. It also gave a viability, T/C [22] of 85.7%, a viability, T/C [23] of 88.7% and a viability, T/C [24] of 83.4%. The viability, T/C [25] was 100%, the viability, T/C [26] was 96.8% and the viability, T/C [27] was 96.6%. The viability, T/C [28] was 88.6%, the viability, T/C [29] was 98.3% and the viability, T/C [30] was 81.9%. It also gave a viability, T/C [31] of 92%, a viability, T/C [32] of 92.2% and a viability, T/C [33] of 98.8%. It also gave a viability, T/C [34] of 91.5%, a viability, T/C [35] of 92.2% and a viability, T/C [36] of 91.7%.
In the case of `COc1cccc(OCCCN)c1-c1cc(Nc2cnc(C#N)cn2)n[nH]1` + Nc1ccc(C#CCN(C(=O)Cc2ncc(C(F)(F)F)cc2C(F)(F)F)c2ccc(F)cc2)nn1, the IC50 (second compound 0.0316 µM) is reported as 15.3 nM, the IC50 (second compound 0.1 µM) is reported as 13.8 nM and the IC50 (second compound 0.316 µM) is reported as 14.2 nM. For the same compound, the IC50 (second compound 1 µM) was 15.5 nM, the IC50 (second compound 3.16 µM) was 18.2 nM and the IC50 (second compound 10 µM) was greater than 1000 nM. The viability, T/C [37] was 79%, the viability, T/C [38] was 52% and the viability, T/C [1] was 46.1%. It also gave a viability, T/C [2] of 46%, a viability, T/C [3] of 45.7% and a viability, T/C [4] of 47.7%. For the same compound, the viability, T/C [39] was 74%, the viability, T/C [40] was 53% and the viability, T/C [7] was 43.2%. The viability, T/C [8] was 43.3%, the viability, T/C [9] was 43.3% and the viability, T/C [10] was 48.1%. For the same compound, the viability, T/C [41] was 77.3%, the viability, T/C [42] was 51.5% and the viability, T/C [13] was 47.3%. It also gave a viability, T/C [14] of 42.9%, a viability, T/C [15] of 43% and a viability, T/C [16] of 48.6%. It also gave a viability, T/C [43] of 73.7%, a viability, T/C [44] of 51.1% and a viability, T/C [19] of 50.1%. For the same compound, the viability, T/C [20] was 41.3%, the viability, T/C [21] was 41% and the viability, T/C [22] was 46.7%. It also gave a viability, T/C [45] of 68.4%, a viability, T/C [46] of 52.3% and a viability, T/C [25] of 46.6%. The viability, T/C [26] was 44%, the viability, T/C [27] was 53.6% and the viability, T/C [28] was 48.1%. For the same compound, the viability, T/C [47] was 72.3%, the viability, T/C [48] was 57.5% and the viability, T/C [31] was 46.1%. For the same compound, the viability, T/C [32] was 49.7%, the viability, T/C [33] was 53.2% and the viability, T/C [34] was 51.2%.
In the case of `Cn1ncnc1[C@H]1c2n[nH]c(=O)c3cc(F)cc(c23)N[C@@H]1c1ccc(F)cc1` + Nc1ccc(C#CCN(C(=O)Cc2ncc(C(F)(F)F)cc2C(F)(F)F)c2ccc(F)cc2)nn1, the IC50 (second compound 0.0316 µM) is reported as greater than 100 nM, the IC50 (second compound 0.1 µM) is reported as greater than 100 nM and the IC50 (second compound 0.316 µM) is reported as greater than 100 nM. It also gave an IC50 (second compound 1 µM) greater than 100 nM, an IC50 (second compound 3.16 µM) greater than 100 nM and an IC50 (second compound 10 µM) greater than 100 nM. For the same compound, the viability, T/C (second compound 0.0316 µM, first compound 0.000316 µM) was 95.1%, the viability, T/C (second compound 0.0316 µM, first compound 0.001 µM) was 86.4% and the viability, T/C [37] was 90.3%. The viability, T/C [38] was 90.7%, the viability, T/C [1] was 88.1% and the viability, T/C [2] was 86.8%. For the same compound, the viability, T/C (second compound 0.1 µM, first compound 0.000316 µM) was 104%, the viability, T/C (second compound 0.1 µM, first compound 0.001 µM) was 86.5% and the viability, T/C [39] was 90.1%. It also gave a viability, T/C [40] of 88.1%, a viability, T/C [7] of 93.1% and a viability, T/C [8] of 80.4%. For the same compound, the viability, T/C (second compound 0.316 µM, first compound 0.000316 µM) was 99.9%, the viability, T/C (second compound 0.316 µM, first compound 0.001 µM) was 94.1% and the viability, T/C [41] was 89.8%. The viability, T/C [42] was 84.8%, the viability, T/C [13] was 87.4% and the viability, T/C [14] was 75.7%. For the same compound, the viability, T/C (second compound 1 µM, first compound 0.000316 µM) was 99.2%, the viability, T/C (second compound 1 µM, first compound 0.001 µM) was 88% and the viability, T/C [43] was 89.5%. The viability, T/C [44] was 95%, the viability, T/C [19] was 92.2% and the viability, T/C [20] was 81.7%. It also gave a viability, T/C (second compound 3.16 µM, first compound 0.000316 µM) of 97.8%, a viability, T/C (second compound 3.16 µM, first compound 0.001 µM) of 88% and a viability, T/C [45] of 90%. It also gave a viability, T/C [46] of 87%, a viability, T/C [25] of 83.9% and a viability, T/C [26] of 83.7%. The viability, T/C (second compound 10 µM, first compound 0.000316 µM) was 105%, the viability, T/C (second compound 10 µM, first compound 0.001 µM) was 92.1% and the viability, T/C [47] was 96.1%. For the same compound, the viability, T/C [48] was 92.2%, the viability, T/C [31] was 92.4% and the viability, T/C [32] was 84%.
